Assay results from the supplement of paper PMC10307832.

Key:
Experiment in all cases: relative viability (nuclei count vs DMSO), 5 days (fraction); higher = more cells survive
kb NB 142-70 + Dasatinib = compound: C1CSC2=C(C(=O)N1)SC3=C2C=C(C=C3)O [kb NB 142-70] + Cc1nc(Nc2ncc(C(=O)Nc3c(C)cccc3Cl)s2)cc(N2CCN(CCO)CC2)n1 [Dasatinib] (partner 0.075 µM)
Method in brief: (§1)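 The day after seeding in 1536-well plates, lung cancer cell lines were treated by pin tool with a single drug, or with a fixed anchor-drug dose together with five library-drug doses (not always all listed) in √10 steps. After 5 days, a combined fix-and-stain solution (final 0.05% Triton X-100, 1% formaldehyde, 1 ug/ml Hoechst) was added. Nuclei counted on 4× images gave relative viability as treated counts over vehicle counts, reported as the median of duplicate plates.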

[1] = compound: C1CSC2=C(C(=O)N1)SC3=C2C=C(C=C3)O [kb NB 142-70] + Nc1nc2[nH]cc(CCc3ccc(C(=O)N[C@@H](CCC(=O)O)C(=O)O)cc3)c2c(=O)[nH]1 [Pemetrexed] (partner 0.2 µM)
Method in brief: as §1

kb NB 142-70 + Olaparib = compound: C1CSC2=C(C(=O)N1)SC3=C2C=C(C=C3)O [kb NB 142-70] + O=C(c1cc(Cc2n[nH]c(=O)c3ccccc23)ccc1F)N1CCN(C(=O)C2CC2)CC1 [Olaparib] (partner 8 µM)
Method in brief: as §1

[2] = compound: NCC(=O)Nc1ccc(-n2nc(C(F)(F)F)cc2-c2ccc3c(ccc4ccccc43)c2)cc1 + CS(=O)(=O)CCNCc1ccc(-c2ccc3ncnc(Nc4ccc(OCc5cccc(F)c5)c(Cl)c4)c3c2)o1 [Lapatinib] (partner 2 µM)
Method in brief: as §1

[3] = compound: NCC(=O)Nc1ccc(-n2nc(C(F)(F)F)cc2-c2ccc3c(ccc4ccccc43)c2)cc1 + C[C@@H](Oc1cc(-c2cnn(C3CCNCC3)c2)cnc1N)c1c(Cl)ccc(F)c1Cl [Crizotinib] (partner 1 µM)
Method in brief: as §1

H3255 showed a relative viability (kb NB 142-70 + Dasatinib; first compound 0.1 µM) of 0.297, a relative viability (kb NB 142-70 + Dasatinib; first compound 1 µM) of 0.404 and a relative viability (kb NB 142-70 + Dasatinib; first compound 3.162 µM) of 0.405. For the same cell line, the relative viability ([1]; first compound 0.1 µM) was 0.572, the relative viability ([1]; first compound 1 µM) was 0.568 and the relative viability ([1]; first compound 3.162 µM) was 0.58. For the same cell line, the relative viability (kb NB 142-70 + Olaparib; first compound 0.1 µM) was 0.559, the relative viability (kb NB 142-70 + Olaparib; first compound 1 µM) was 0.577 and the relative viability (kb NB 142-70 + Olaparib; first compound 3.162 µM) was 0.604. The relative viability ([2]; first compound 0.02 µM) was 0.276, the relative viability ([2]; first compound 0.06325 µM) was 0.268 and the relative viability ([2]; first compound 0.2 µM) was 0.231. For the same cell line, the relative viability ([2]; first compound 0.6325 µM) was 0.258, the relative viability ([2]; first compound 2 µM) was 0.268 and the relative viability ([3]; first compound 0.02 µM) was 0.936. The relative viability ([3]; first compound 0.06325 µM) was 0.846, the relative viability ([3]; first compound 0.2 µM) was 0.884 and the relative viability ([3]; first compound 0.6325 µM) was 0.806. The relative viability ([3]; first compound 2 µM) was 0.894.

Cell Line NCI-H1993 has a relative viability (kb NB 142-70 + Dasatinib; first compound 0.1 µM) of 0.626, a relative viability (kb NB 142-70 + Dasatinib; first compound 1 µM) of 0.478 and a relative viability (kb NB 142-70 + Dasatinib; first compound 3.162 µM) of 0.531. It also gave a relative viability ([1]; first compound 0.1 µM) of 0.562, a relative viability ([1]; first compound 1 µM) of 0.597 and a relative viability ([1]; first compound 3.162 µM) of 0.554. The relative viability (kb NB 142-70 + Olaparib; first compound 0.1 µM) was 1.04, the relative viability (kb NB 142-70 + Olaparib; first compound 1 µM) was 0.911 and the relative viability (kb NB 142-70 + Olaparib; first compound 3.162 µM) was 1.04. For the same cell line, the relative viability ([2]; first compound 0.02 µM) was 0.754, the relative viability ([2]; first compound 0.06325 µM) was 0.707 and the relative viability ([2]; first compound 0.2 µM) was 0.859. The relative viability ([2]; first compound 0.6325 µM) was 0.909, the relative viability ([2]; first compound 2 µM) was 0.901 and the relative viability ([3]; first compound 0.02 µM) was 0.939. For the same cell line, the relative viability ([3]; first compound 0.06325 µM) was 0.987, the relative viability ([3]; first compound 0.2 µM) was 0.822 and the relative viability ([3]; first compound 0.6325 µM) was 1.03. The relative viability ([3]; first compound 2 µM) was 0.902.

In the case of NCI-H1734, the relative viability (kb NB 142-70 + Dasatinib; first compound 0.1 µM) is reported as 0.449, the relative viability (kb NB 142-70 + Dasatinib; first compound 1 µM) is reported as 0.421 and the relative viability (kb NB 142-70 + Dasatinib; first compound 3.162 µM) is reported as 0.278. For the same cell line, the relative viability ([1]; first compound 0.1 µM) was 0.395, the relative viability ([1]; first compound 1 µM) was 0.369 and the relative viability ([1]; first compound 3.162 µM) was 0.376. The relative viability (kb NB 142-70 + Olaparib; first compound 0.1 µM) was 0.586, the relative viability (kb NB 142-70 + Olaparib; first compound 1 µM) was 0.509 and the relative viability (kb NB 142-70 + Olaparib; first compound 3.162 µM) was 0.304. It also gave a relative viability ([2]; first compound 0.02 µM) of 1.05, a relative viability ([2]; first compound 0.06325 µM) of 1.01 and a relative viability ([2]; first compound 0.2 µM) of 1.15. It also gave a relative viability ([2]; first compound 0.6325 µM) of 1.03, a relative viability ([2]; first compound 2 µM) of 0.853 and a relative viability ([3]; first compound 0.02 µM) of 0.801. It also gave a relative viability ([3]; first compound 0.06325 µM) of 0.611, a relative viability ([3]; first compound 0.2 µM) of 0.788 and a relative viability ([3]; first compound 0.6325 µM) of 0.739. It also gave a relative viability ([3]; first compound 2 µM) of 0.683.

HOP-62 gave a relative viability (kb NB 142-70 + Dasatinib; first compound 0.1 µM) of 0.72, a relative viability (kb NB 142-70 + Dasatinib; first compound 1 µM) of 0.65 and a relative viability (kb NB 142-70 + Dasatinib; first compound 3.162 µM) of 0.763. It also gave a relative viability ([1]; first compound 0.1 µM) of 0.3, a relative viability ([1]; first compound 1 µM) of 0.361 and a relative viability ([1]; first compound 3.162 µM) of 0.388. It also gave a relative viability (kb NB 142-70 + Olaparib; first compound 0.1 µM) of 0.457, a relative viability (kb NB 142-70 + Olaparib; first compound 1 µM) of 0.39 and a relative viability (kb NB 142-70 + Olaparib; first compound 3.162 µM) of 0.333. The relative viability ([2]; first compound 0.02 µM) was 1.06, the relative viability ([2]; first compound 0.06325 µM) was 0.913 and the relative viability ([2]; first compound 0.2 µM) was 0.998. The relative viability ([2]; first compound 0.6325 µM) was 0.959, the relative viability ([2]; first compound 2 µM) was 1.14 and the relative viability ([3]; first compound 0.02 µM) was 0.579. For the same cell line, the relative viability ([3]; first compound 0.06325 µM) was 0.921, the relative viability ([3]; first compound 0.2 µM) was 0.942 and the relative viability ([3]; first compound 0.6325 µM) was 0.884. It also gave a relative viability ([3]; first compound 2 µM) of 0.927.

LOU-NH91 gave a relative viability (kb NB 142-70 + Dasatinib; first compound 0.1 µM) of 0.486, a relative viability (kb NB 142-70 + Dasatinib; first compound 1 µM) of 0.508 and a relative viability (kb NB 142-70 + Dasatinib; first compound 3.162 µM) of 0.556. The relative viability ([1]; first compound 0.1 µM) was 0.432, the relative viability ([1]; first compound 1 µM) was 0.462 and the relative viability ([1]; first compound 3.162 µM) was 0.386. The relative viability (kb NB 142-70 + Olaparib; first compound 0.1 µM) was 0.879, the relative viability (kb NB 142-70 + Olaparib; first compound 1 µM) was 0.917 and the relative viability (kb NB 142-70 + Olaparib; first compound 3.162 µM) was 0.552. It also gave a relative viability ([2]; first compound 0.02 µM) of 0.848, a relative viability ([2]; first compound 0.06325 µM) of 0.678 and a relative viability ([2]; first compound 0.2 µM) of 0.781. It also gave a relative viability ([2]; first compound 0.6325 µM) of 0.797, a relative viability ([2]; first compound 2 µM) of 0.767 and a relative viability ([3]; first compound 0.02 µM) of 0.725. It also gave a relative viability ([3]; first compound 0.06325 µM) of 0.761, a relative viability ([3]; first compound 0.2 µM) of 0.754 and a relative viability ([3]; first compound 0.6325 µM) of 0.565. For the same cell line, the relative viability ([3]; first compound 2 µM) was 0.756.

Work on NCI-H2228 yielded a relative viability (kb NB 142-70 + Dasatinib; first compound 0.1 µM) of 0.568, a relative viability (kb NB 142-70 + Dasatinib; first compound 1 µM) of 0.542 and a relative viability (kb NB 142-70 + Dasatinib; first compound 3.162 µM) of 0.405. For the same cell line, the relative viability ([1]; first compound 0.1 µM) was 0.375, the relative viability ([1]; first compound 1 µM) was 0.376 and the relative viability ([1]; first compound 3.162 µM) was 0.24. It also gave a relative viability (kb NB 142-70 + Olaparib; first compound 0.1 µM) of 0.694, a relative viability (kb NB 142-70 + Olaparib; first compound 1 µM) of 0.587 and a relative viability (kb NB 142-70 + Olaparib; first compound 3.162 µM) of 0.362. For the same cell line, the relative viability ([2]; first compound 0.02 µM) was 1.1, the relative viability ([2]; first compound 0.06325 µM) was 1.21 and the relative viability ([2]; first compound 0.2 µM) was 1.14. The relative viability ([2]; first compound 0.6325 µM) was 0.935, the relative viability ([2]; first compound 2 µM) was 0.804 and the relative viability ([3]; first compound 0.02 µM) was 0.56. The relative viability ([3]; first compound 0.06325 µM) was 0.652, the relative viability ([3]; first compound 0.2 µM) was 0.603 and the relative viability ([3]; first compound 0.6325 µM) was 0.544. It also gave a relative viability ([3]; first compound 2 µM) of 0.493.

Work on PC-14 yielded a relative viability (kb NB 142-70 + Dasatinib; first compound 0.1 µM) of 0.299, a relative viability (kb NB 142-70 + Dasatinib; first compound 1 µM) of 0.239 and a relative viability (kb NB 142-70 + Dasatinib; first compound 3.162 µM) of 0.224. For the same cell line, the relative viability ([1]; first compound 0.1 µM) was 0.134, the relative viability ([1]; first compound 1 µM) was 0.148 and the relative viability ([1]; first compound 3.162 µM) was 0.139. It also gave a relative viability (kb NB 142-70 + Olaparib; first compound 0.1 µM) of 0.318, a relative viability (kb NB 142-70 + Olaparib; first compound 1 µM) of 0.265 and a relative viability (kb NB 142-70 + Olaparib; first compound 3.162 µM) of 0.216. The relative viability ([2]; first compound 0.02 µM) was 0.381, the relative viability ([2]; first compound 0.06325 µM) was 0.277 and the relative viability ([2]; first compound 0.2 µM) was 0.305. For the same cell line, the relative viability ([2]; first compound 0.6325 µM) was 0.305, the relative viability ([2]; first compound 2 µM) was 0.37 and the relative viability ([3]; first compound 0.02 µM) was 1.1. For the same cell line, the relative viability ([3]; first compound 0.06325 µM) was 0.905, the relative viability ([3]; first compound 0.2 µM) was 1.04 and the relative viability ([3]; first compound 0.6325 µM) was 0.976. It also gave a relative viability ([3]; first compound 2 µM) of 0.937.

With NCI-H1437 the relative viability (kb NB 142-70 + Dasatinib; first compound 0.1 µM) was 0.485, the relative viability (kb NB 142-70 + Dasatinib; first compound 1 µM) was 0.459 and the relative viability (kb NB 142-70 + Dasatinib; first compound 3.162 µM) was 0.433. For the same cell line, the relative viability ([1]; first compound 0.1 µM) was 0.297, the relative viability ([1]; first compound 1 µM) was 0.359 and the relative viability ([1]; first compound 3.162 µM) was 0.349. For the same cell line, the relative viability (kb NB 142-70 + Olaparib; first compound 0.1 µM) was 0.625, the relative viability (kb NB 142-70 + Olaparib; first compound 1 µM) was 0.663 and the relative viability (kb NB 142-70 + Olaparib; first compound 3.162 µM) was 0.57. The relative viability ([2]; first compound 0.02 µM) was 0.768, the relative viability ([2]; first compound 0.06325 µM) was 0.76 and the relative viability ([2]; first compound 0.2 µM) was 0.751. It also gave a relative viability ([2]; first compound 0.6325 µM) of 0.84, a relative viability ([2]; first compound 2 µM) of 0.78 and a relative viability ([3]; first compound 0.02 µM) of 0.946. It also gave a relative viability ([3]; first compound 0.06325 µM) of 0.85, a relative viability ([3]; first compound 0.2 µM) of 0.964 and a relative viability ([3]; first compound 0.6325 µM) of 0.94. The relative viability ([3]; first compound 2 µM) was 0.894.
